Results: the supplement of paper PMC10307832

Experiments:
Assay in all cases: relative viability (nuclei count vs DMSO), 5 days (fraction); higher = more cells survive
[1] = system: HOP-62
How it was run: (§1)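 Values are medians from duplicate plates. Each reflects relative viability, defined as the nuclei count of treated wells over that of vehicle wells. Lung cancer cell lines in 1536-well plates were pin-tool dosed one day after seeding with one drug alone or with a fixed anchor-drug dose plus five library-drug doses (not always all listed) in √10 steps, then fixed, stained and imaged at 4× after 5 days.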

[2] = system: HCC-44
How it was run: as §1

[3] = system: NCI-H520
How it was run: as §1

[4] = system: H3255
How it was run: as §1

[5] = system: NCI-H2342
How it was run: as §1

[6] = system: NCI-H1355
How it was run: as §1

[7] = system: LCLC-103H
How it was run: as §1

[8] = system: SK-MES-1
How it was run: as §1

[9] = system: NCI-H647
How it was run: as §1

[10] = system: NCI-H2126
How it was run: as §1

[11] = system: COR-L 105
How it was run: as §1

[12] = system: RERF-LC-KJ
How it was run: as §1

[13] = system: 201T
How it was run: as §1

[14] = system: A-427
How it was run: as §1

[15] = system: NCI-H23
How it was run: as §1

[16] = system: NCI-H441
How it was run: as §1

[17] = system: NCI-H1915
How it was run: as §1

[18] = system: NCI-H322M
How it was run: as §1

[19] = system: NCI-H2087
How it was run: as §1

[20] = system: COR-L23
How it was run: as §1

[21] = system: NCI-H2085
How it was run: as §1

[22] = system: NCI-H1651
How it was run: as §1

[23] = system: LC-2-ad
How it was run: as §1

[24] = system: ChaGo-K-1
How it was run: as §1

[25] = system: NCI-H1993
How it was run: as §1

Nc1cccc2c1CN(C1CCC(=O)NC1=O)C2=O (stereo unspecified) [Lenalidomide] + Nc1nc2[nH]cc(CCc3ccc(C(=O)N[C@@H](CCC(=O)O)C(=O)O)cc3)c2c(=O)[nH]1 [Pemetrexed] (partner 0.2 µM)
relative viability ([1]; first compound 0.253 µM): 0.356
relative viability ([1]; first compound 0.8 µM): 0.376
relative viability ([1]; first compound 2.53 µM): 0.287
relative viability ([1]; first compound 8 µM): 0.381
relative viability ([2]; first compound 0.253 µM): 0.616
relative viability ([2]; first compound 0.8 µM): 0.638
relative viability ([2]; first compound 2.53 µM): 0.631
relative viability ([2]; first compound 8 µM): 0.762
relative viability ([3]; first compound 0.253 µM): 0.722
relative viability ([3]; first compound 0.8 µM): 0.607
relative viability ([3]; first compound 2.53 µM): 0.79
relative viability ([3]; first compound 8 µM): 0.689
relative viability ([4]; first compound 0.253 µM): 0.65
relative viability ([4]; first compound 0.8 µM): 0.565
relative viability ([4]; first compound 2.53 µM): 0.585
relative viability ([4]; first compound 8 µM): 0.605
relative viability ([5]; first compound 0.253 µM): 0.868
relative viability ([5]; first compound 0.8 µM): 0.774
relative viability ([5]; first compound 2.53 µM): 0.771
relative viability ([5]; first compound 8 µM): 0.577
relative viability ([6]; first compound 0.253 µM): 1.08
relative viability ([6]; first compound 0.8 µM): 0.784
relative viability ([6]; first compound 2.53 µM): 1.13
relative viability ([6]; first compound 8 µM): 0.738
relative viability ([7]; first compound 0.253 µM): 0.488
relative viability ([7]; first compound 0.8 µM): 0.476
relative viability ([7]; first compound 2.53 µM): 0.474
relative viability ([7]; first compound 8 µM): 0.458
relative viability ([8]; first compound 0.253 µM): 0.91
relative viability ([8]; first compound 0.8 µM): 0.823
relative viability ([8]; first compound 2.53 µM): 0.934
relative viability ([8]; first compound 8 µM): 0.888
relative viability ([9]; first compound 0.253 µM): 0.173
relative viability ([9]; first compound 0.8 µM): 0.164
relative viability ([9]; first compound 2.53 µM): 0.178
relative viability ([9]; first compound 8 µM): 0.182
relative viability ([10]; first compound 0.253 µM): 0.655
relative viability ([10]; first compound 0.8 µM): 0.679
relative viability ([10]; first compound 2.53 µM): 0.75
relative viability ([10]; first compound 8 µM): 0.634
relative viability ([11]; first compound 0.253 µM): 1.21
relative viability ([11]; first compound 0.8 µM): 1.16
relative viability ([11]; first compound 2.53 µM): 1.22
relative viability ([11]; first compound 8 µM): 1.2
relative viability ([12]; first compound 0.253 µM): 0.542
relative viability ([12]; first compound 0.8 µM): 0.412
relative viability ([12]; first compound 2.53 µM): 0.503
relative viability ([12]; first compound 8 µM): 0.503
relative viability ([13]; first compound 0.253 µM): 0.33
relative viability ([13]; first compound 0.8 µM): 0.325
relative viability ([13]; first compound 2.53 µM): 0.322
relative viability ([13]; first compound 8 µM): 0.287
relative viability ([14]; first compound 0.253 µM): 0.989
relative viability ([14]; first compound 0.8 µM): 0.931
relative viability ([14]; first compound 2.53 µM): 1.05
relative viability ([14]; first compound 8 µM): 0.993
relative viability ([15]; first compound 0.253 µM): 0.589
relative viability ([15]; first compound 2.53 µM): 0.861
relative viability ([15]; first compound 8 µM): 0.694
relative viability ([16]; first compound 0.253 µM): 0.27
relative viability ([16]; first compound 0.8 µM): 0.273
relative viability ([16]; first compound 2.53 µM): 0.268
relative viability ([16]; first compound 8 µM): 0.242
relative viability ([17]; first compound 0.253 µM): 0.492
relative viability ([17]; first compound 0.8 µM): 0.515
relative viability ([17]; first compound 2.53 µM): 0.518
relative viability ([17]; first compound 8 µM): 0.476
relative viability ([18]; first compound 0.253 µM): 0.631
relative viability ([18]; first compound 0.8 µM): 0.635
relative viability ([18]; first compound 2.53 µM): 0.664
relative viability ([18]; first compound 8 µM): 0.697
relative viability ([19]; first compound 0.253 µM): 0.65
relative viability ([19]; first compound 2.53 µM): 0.642
relative viability ([19]; first compound 8 µM): 0.671
relative viability ([20]; first compound 0.253 µM): 0.192
relative viability ([20]; first compound 0.8 µM): 0.191
relative viability ([20]; first compound 2.53 µM): 0.191
relative viability ([20]; first compound 8 µM): 0.189
relative viability ([21]; first compound 0.253 µM): 0.884
relative viability ([21]; first compound 0.8 µM): 0.96
relative viability ([21]; first compound 2.53 µM): 0.924
relative viability ([21]; first compound 8 µM): 0.873
relative viability ([22]; first compound 0.253 µM): 0.608
relative viability ([22]; first compound 0.8 µM): 0.497
relative viability ([22]; first compound 2.53 µM): 0.586
relative viability ([22]; first compound 8 µM): 0.582
relative viability ([23]; first compound 0.253 µM): 0.269
relative viability ([23]; first compound 0.8 µM): 0.258
relative viability ([23]; first compound 2.53 µM): 0.262
relative viability ([23]; first compound 8 µM): 0.269
relative viability ([24]; first compound 0.253 µM): 0.256
relative viability ([24]; first compound 0.8 µM): 0.255
relative viability ([24]; first compound 2.53 µM): 0.274
relative viability ([24]; first compound 8 µM): 0.26
relative viability ([25]; first compound 0.253 µM): 0.554
relative viability ([25]; first compound 0.8 µM): 0.561
relative viability ([25]; first compound 2.53 µM): 0.63
relative viability ([25]; first compound 8 µM): 0.452

Nc1cccc2c1CN(C1CCC(=O)NC1=O)C2=O (stereo unspecified) [Lenalidomide] + Nc1ncn([C@H]2C[C@H](O)[C@@H](CO)O2)c(=O)n1 [Decitabine] (partner 2 µM)
relative viability ([1]; first compound 0.253 µM): 0.264
relative viability ([1]; first compound 0.8 µM): 0.239
relative viability ([1]; first compound 2.53 µM): 0.224
relative viability ([1]; first compound 8 µM): 0.212
relative viability ([2]; first compound 0.253 µM): 0.946
relative viability ([2]; first compound 0.8 µM): 0.781
relative viability ([2]; first compound 2.53 µM): 1.01
relative viability ([2]; first compound 8 µM): 0.853
relative viability ([3]; first compound 0.253 µM): 0.539
relative viability ([3]; first compound 0.8 µM): 0.548
relative viability ([3]; first compound 2.53 µM): 0.507
relative viability ([3]; first compound 8 µM): 0.438
relative viability ([4]; first compound 0.253 µM): 0.592
relative viability ([4]; first compound 0.8 µM): 0.556
relative viability ([4]; first compound 2.53 µM): 0.563
relative viability ([4]; first compound 8 µM): 0.421
relative viability ([5]; first compound 0.253 µM): 0.687
relative viability ([5]; first compound 0.8 µM): 0.678
relative viability ([5]; first compound 2.53 µM): 0.624
relative viability ([5]; first compound 8 µM): 0.699
relative viability ([6]; first compound 0.253 µM): 0.36
relative viability ([6]; first compound 0.8 µM): 0.367
relative viability ([6]; first compound 2.53 µM): 0.376
relative viability ([6]; first compound 8 µM): 0.341
relative viability ([7]; first compound 0.253 µM): 0.72
relative viability ([7]; first compound 0.8 µM): 0.664
relative viability ([7]; first compound 2.53 µM): 0.73
relative viability ([7]; first compound 8 µM): 0.651
relative viability ([8]; first compound 0.253 µM): 0.362
relative viability ([8]; first compound 0.8 µM): 0.342
relative viability ([8]; first compound 2.53 µM): 0.428
relative viability ([8]; first compound 8 µM): 0.394
relative viability ([9]; first compound 0.253 µM): 0.426
relative viability ([9]; first compound 0.8 µM): 0.318
relative viability ([9]; first compound 2.53 µM): 0.428
relative viability ([9]; first compound 8 µM): 0.446
relative viability ([10]; first compound 0.253 µM): 0.645
relative viability ([10]; first compound 0.8 µM): 0.611
relative viability ([10]; first compound 2.53 µM): 0.578
relative viability ([10]; first compound 8 µM): 0.516
relative viability ([11]; first compound 0.253 µM): 0.684
relative viability ([11]; first compound 0.8 µM): 0.704
relative viability ([11]; first compound 2.53 µM): 0.763
relative viability ([11]; first compound 8 µM): 0.711
relative viability ([12]; first compound 0.253 µM): 0.717
relative viability ([12]; first compound 0.8 µM): 0.655
relative viability ([12]; first compound 2.53 µM): 0.65
relative viability ([12]; first compound 8 µM): 0.774
relative viability ([13]; first compound 0.253 µM): 0.874
relative viability ([13]; first compound 0.8 µM): 0.927
relative viability ([13]; first compound 2.53 µM): 0.88
relative viability ([13]; first compound 8 µM): 0.816
relative viability ([14]; first compound 0.253 µM): 0.566
relative viability ([14]; first compound 0.8 µM): 0.573
relative viability ([14]; first compound 2.53 µM): 0.646
relative viability ([14]; first compound 8 µM): 0.552
relative viability ([15]; first compound 0.253 µM): 0.302
relative viability ([15]; first compound 2.53 µM): 0.315
relative viability ([15]; first compound 8 µM): 0.305
relative viability ([16]; first compound 0.253 µM): 0.233
relative viability ([16]; first compound 0.8 µM): 0.229
relative viability ([16]; first compound 2.53 µM): 0.264
relative viability ([16]; first compound 8 µM): 0.262
relative viability ([17]; first compound 0.253 µM): 0.247
relative viability ([17]; first compound 0.8 µM): 0.253
relative viability ([17]; first compound 2.53 µM): 0.274
relative viability ([17]; first compound 8 µM): 0.241
relative viability ([18]; first compound 0.253 µM): 0.702
relative viability ([18]; first compound 0.8 µM): 0.78
relative viability ([18]; first compound 2.53 µM): 0.725
relative viability ([18]; first compound 8 µM): 0.688
relative viability ([19]; first compound 0.253 µM): 0.31
relative viability ([19]; first compound 2.53 µM): 0.303
relative viability ([19]; first compound 8 µM): 0.292
relative viability ([20]; first compound 0.253 µM): 0.416
relative viability ([20]; first compound 0.8 µM): 0.395
relative viability ([20]; first compound 2.53 µM): 0.491
relative viability ([20]; first compound 8 µM): 0.409
relative viability ([21]; first compound 0.253 µM): 0.546
relative viability ([21]; first compound 0.8 µM): 0.542
relative viability ([21]; first compound 2.53 µM): 0.529
relative viability ([21]; first compound 8 µM): 0.566
relative viability ([22]; first compound 0.253 µM): 0.631
relative viability ([22]; first compound 0.8 µM): 0.5
relative viability ([22]; first compound 2.53 µM): 0.645
relative viability ([22]; first compound 8 µM): 0.582
relative viability ([23]; first compound 0.253 µM): 0.685
relative viability ([23]; first compound 0.8 µM): 0.81
relative viability ([23]; first compound 2.53 µM): 0.744
relative viability ([23]; first compound 8 µM): 0.79
relative viability ([24]; first compound 0.253 µM): 0.519
relative viability ([24]; first compound 0.8 µM): 0.551
relative viability ([24]; first compound 2.53 µM): 0.525
relative viability ([24]; first compound 8 µM): 0.538
relative viability ([25]; first compound 0.253 µM): 0.658
relative viability ([25]; first compound 0.8 µM): 0.588
relative viability ([25]; first compound 2.53 µM): 0.529
relative viability ([25]; first compound 8 µM): 0.51
